tested on: benzodiazepine receptors; experiment: Flunitrazepam Receptor Binding Assay, FBA Test No. 1 (3H-flunitrazepam displacement, calf caudate); conditions: final concentration 1×10^-6 M, lower = more displacement of 3H-flunitrazepam, 1 µM

Row | SMILES | Response - % of Control (percent specifically bound compared to control)
1 | CC(c1ccccc1)N1CCn2c1nc1ccc(Cl)cc1c2=O (single isomer, unassigned) [Example 2D] | 15 % of Control
2 | O=c1c2cc(Cl)ccc2nc2n1CCN2Cc1ccccc1 [Example 2A] | 1 % of Control
3 | CC1Cn2c(nc3ccc(Cl)cc3c2=O)N1Cc1ccccc1 (stereo not shown) [Example 2B] | 5 % of Control
4 | O=c1c2cc(Cl)ccc2nc2n1CCN2Cc1ccc(Cl)cc1 [Example 2E, 1-(p-chlorobenzyl)-7-chloro-2,3-dihydro-imidazo[2,1-b]quinazolin-5(1H)-one] | 5 % of Control
